Laboratory results from paper PMC9814781, “Structure-based design of a dual-warhead covalent inhibitor of FGFR4” (Communications Chemistry, 2022).

Legend:
GSH reaction assay = type: in vitro ADME; conditions: GSH 5 mM, inhibitor 1 mM, 37°C, 10–60 min
Procedure: GSH (5 mM) and inhibitor (1 mM) or DMSO control were mixed in equal volumes and reacted at 37°C for 10 min, 20 min, 30 min, 40 min, 50 min, and 60 min. The remaining GSH was detected with DTNB (Beyotime, China), and the absorption light was measured at 412 nm on a plate reader (Perkin-Elmer). Data were determined using the time (min) versus % of control in Origin 2018 software.

FGFR4(C552A) mutant = conditions: cited from earlier work
FGFR1 = FGFR1 (Homo sapiens, UniProt P11362); assay: MALDI-TOF MS covalent binding
Sequence of FGFR1 (P11362 22-822): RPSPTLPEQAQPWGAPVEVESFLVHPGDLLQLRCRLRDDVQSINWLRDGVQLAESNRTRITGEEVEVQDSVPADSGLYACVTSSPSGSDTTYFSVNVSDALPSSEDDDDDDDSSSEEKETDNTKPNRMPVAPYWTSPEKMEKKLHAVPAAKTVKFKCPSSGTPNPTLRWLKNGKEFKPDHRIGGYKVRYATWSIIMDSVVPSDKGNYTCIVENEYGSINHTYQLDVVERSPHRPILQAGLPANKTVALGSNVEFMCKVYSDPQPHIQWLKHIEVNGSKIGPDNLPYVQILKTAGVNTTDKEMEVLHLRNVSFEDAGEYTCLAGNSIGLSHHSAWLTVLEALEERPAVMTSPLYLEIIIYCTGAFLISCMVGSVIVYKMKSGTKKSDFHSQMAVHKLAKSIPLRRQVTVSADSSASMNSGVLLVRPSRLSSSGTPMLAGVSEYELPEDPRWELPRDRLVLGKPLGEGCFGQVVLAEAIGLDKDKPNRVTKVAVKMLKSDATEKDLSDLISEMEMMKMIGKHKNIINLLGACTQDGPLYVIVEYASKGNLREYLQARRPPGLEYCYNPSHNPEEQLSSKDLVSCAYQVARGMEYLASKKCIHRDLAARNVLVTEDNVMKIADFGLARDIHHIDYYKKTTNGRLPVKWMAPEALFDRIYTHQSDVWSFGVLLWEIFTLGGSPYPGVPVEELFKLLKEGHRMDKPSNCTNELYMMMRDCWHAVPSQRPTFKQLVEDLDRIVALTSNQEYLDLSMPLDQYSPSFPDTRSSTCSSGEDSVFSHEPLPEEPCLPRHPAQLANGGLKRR

FGFR4(C477A) = target: T1, FGFR4(C477A) (Homo sapiens, UniProt P22455, C477A); assay: MALDI-TOF MS covalent binding
T1 construct: FGFR4 (residues 445–753); 6xHis + PreScission site (N, cleaved yes); made in house; host or cells: Escherichia coli Rosseta
T1 sequence (P22455 445-753 C477A): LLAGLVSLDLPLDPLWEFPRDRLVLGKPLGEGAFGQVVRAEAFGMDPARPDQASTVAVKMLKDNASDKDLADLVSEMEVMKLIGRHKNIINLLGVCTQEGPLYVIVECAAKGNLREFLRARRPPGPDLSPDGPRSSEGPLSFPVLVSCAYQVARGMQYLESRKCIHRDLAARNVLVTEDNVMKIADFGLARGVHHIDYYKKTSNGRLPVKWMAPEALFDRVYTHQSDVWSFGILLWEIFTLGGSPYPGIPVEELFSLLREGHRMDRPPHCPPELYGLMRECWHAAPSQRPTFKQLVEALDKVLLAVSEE
Procedure: (§1) Wild-type FGFRs and mutant FGFRs were prepared as previously described[25]–[27]. […] The N-terminal of the recombinant proteins were contained a 6xHis tag followed by a PreScission cleavage site for FGFR1, FGFR2, FGFR3, and FGFR4. Site-directed mutagenesis of FGFR4 was generated according to the ClonExpress II One Step Cloning Kit (Vazyme) using the pET28a-FGFR4 plasmid as the template. […] For crystallization experiments, the wild-type FGFR4 plasmid was co-expressed with untagged YOPH to obtain non-phosphorylated proteins. The proteins were first purified by Ni-NTA affinity chromatography. The 6 × His tag was removed by PreScission protease. Then, anion exchange chromatography (Mono Q) and size exclusion chromatography (if necessary) were exploited for further purification. The target proteins were concentrated to ~5–15 mg/mL and flash frozen for storage at −80°C for subsequent studies.

FGFR4(C552A) = target: T2, FGFR4(C552A) (Homo sapiens, UniProt P22455, C552A); assay: MALDI-TOF MS covalent binding
T2 construct: FGFR4 (residues 445–753); 6xHis + PreScission site (N, cleaved yes); made in house; host or cells: Escherichia coli Rosseta
T2 sequence (P22455 445-753 C552A): as the sequence (P22455 445-753 C477A) above, with A33C, C108A counted along it
Procedure: as §1

FGFR4 = target: T3, FGFR4 (Homo sapiens, UniProt P22455); assay: MALDI-TOF MS covalent binding
T3 construct: purchased ICE Bioscience
T3 sequence (P22455 22-802): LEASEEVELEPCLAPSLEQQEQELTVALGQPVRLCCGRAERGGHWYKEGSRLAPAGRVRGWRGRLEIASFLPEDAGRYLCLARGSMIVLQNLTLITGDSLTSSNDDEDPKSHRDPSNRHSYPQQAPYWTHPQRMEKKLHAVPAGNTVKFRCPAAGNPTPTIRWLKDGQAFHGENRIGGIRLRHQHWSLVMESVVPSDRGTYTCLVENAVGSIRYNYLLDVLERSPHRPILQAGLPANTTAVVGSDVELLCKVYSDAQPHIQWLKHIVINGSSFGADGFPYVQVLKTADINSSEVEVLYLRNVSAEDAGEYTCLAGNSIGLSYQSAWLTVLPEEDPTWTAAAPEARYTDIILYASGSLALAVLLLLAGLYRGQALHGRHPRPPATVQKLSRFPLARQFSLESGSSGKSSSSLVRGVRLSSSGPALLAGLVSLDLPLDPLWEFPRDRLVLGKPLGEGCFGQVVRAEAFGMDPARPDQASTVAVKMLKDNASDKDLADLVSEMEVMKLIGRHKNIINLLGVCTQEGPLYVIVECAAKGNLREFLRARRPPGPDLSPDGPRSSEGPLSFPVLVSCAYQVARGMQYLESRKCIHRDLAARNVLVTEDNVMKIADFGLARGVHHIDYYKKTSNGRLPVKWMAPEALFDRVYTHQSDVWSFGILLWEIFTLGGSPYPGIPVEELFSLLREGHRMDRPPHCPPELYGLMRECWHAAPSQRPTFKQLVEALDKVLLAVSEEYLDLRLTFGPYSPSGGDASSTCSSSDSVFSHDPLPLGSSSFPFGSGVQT
Procedure: as §1

Compound: C=CC(=O)N1CCN(CCCn2c(=O)c(-c3c(Cl)c(OC)cc(OC)c3Cl)cc3cnc(NC)nc32)CC1 [PRN1371, 8-(3-(4-Acryloylpiperazin-1-yl)propyl)-6-(2,6-dichloro-3,5-dimethoxyphenyl)-2-(methylamino)pyrido[2,3-d]pyrimidin-7(8H)-one, reference compound]
- GSH reactivity (remaining GSH, DTNB) (GSH reaction assay): time-dependent decrease in GSH

Compound: C=CC(=O)Nc1cccc(C)c1Nc1ncc2c(n1)N(CCCN1CCN(C(=O)C=C)CC1)C(=O)N(c1cc(OC)cc(OC)c1)C2 [CXF-008]
- covalent bond formation (mass shift) (FGFR1): forms a covalent bond with FGFR1
- covalent bond formation (mass shift) (FGFR4(C477A)): forms a covalent bond with FGFR4(C477A)
- covalent bond formation (mass shift) (FGFR4(C552A)): not with FGFR4(C552A)
- covalent bond formation (mass shift) (FGFR4): only forms one covalent bond with Cys552 of FGFR4

Compound: C=CC(=O)N[C@H]1CCOC[C@H]1Nc1ncc2cc(-c3c(Cl)c(OC)cc(OC)c3Cl)ccc2n1 [BLU554]
- IC50 (FGFR4(C552A) mutant): > 10 µM
